Results taken from article PMC5722316, “Synthesis of novel purpurealidin analogs and evaluation of their effect on the cancer-relevant potassium channel KV10.1” (PLoS ONE, 2017).

Legend:
hKV10.1a = molecular target: T1, hKV10.1a (Homo sapiens, UniProt O95259); assay: Two-electrode voltage-clamp recordings of KV10.1 currents in Xenopus laevis oocytes; assay type: cell-based; details: for KV10.1 inhibitory activity in words (structure-activity discussion): based on inhibition at 40 μM (Fig 5)
T1 construct: expressed in transfected cells; host or cells: Xenopus laevis oocytes injected with cRNA transcribed from the hKV10.1a-pSGEM plasmid
T1 sequence (O95259 1-962 isoform O95259-2): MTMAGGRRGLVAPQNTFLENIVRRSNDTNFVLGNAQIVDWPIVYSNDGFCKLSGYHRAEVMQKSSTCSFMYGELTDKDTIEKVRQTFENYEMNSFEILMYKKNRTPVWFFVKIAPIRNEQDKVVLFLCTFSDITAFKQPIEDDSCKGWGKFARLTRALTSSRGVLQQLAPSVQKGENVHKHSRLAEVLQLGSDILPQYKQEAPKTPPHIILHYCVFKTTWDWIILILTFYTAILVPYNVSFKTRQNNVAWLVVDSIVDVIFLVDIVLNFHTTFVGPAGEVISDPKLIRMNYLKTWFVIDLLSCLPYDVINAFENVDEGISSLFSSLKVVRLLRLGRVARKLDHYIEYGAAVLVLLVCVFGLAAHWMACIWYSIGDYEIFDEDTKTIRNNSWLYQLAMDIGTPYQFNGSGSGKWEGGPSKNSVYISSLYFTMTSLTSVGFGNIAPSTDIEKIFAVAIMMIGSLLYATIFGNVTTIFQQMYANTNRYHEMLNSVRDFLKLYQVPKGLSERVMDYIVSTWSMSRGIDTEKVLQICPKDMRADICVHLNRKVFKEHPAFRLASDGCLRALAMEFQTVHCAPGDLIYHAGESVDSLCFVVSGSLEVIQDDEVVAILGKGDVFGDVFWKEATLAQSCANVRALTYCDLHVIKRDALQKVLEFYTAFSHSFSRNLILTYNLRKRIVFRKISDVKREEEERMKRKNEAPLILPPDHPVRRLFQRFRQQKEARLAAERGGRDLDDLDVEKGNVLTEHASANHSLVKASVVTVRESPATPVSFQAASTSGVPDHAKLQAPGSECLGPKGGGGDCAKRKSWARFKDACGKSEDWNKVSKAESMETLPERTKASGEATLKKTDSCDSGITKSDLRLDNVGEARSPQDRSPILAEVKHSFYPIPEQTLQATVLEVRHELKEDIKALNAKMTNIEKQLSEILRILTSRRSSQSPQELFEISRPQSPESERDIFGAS
Excerpt: For the expression of hKV10.1a (GeneBank accession number: NM_002238.3) in Xenopus oocytes, the hKV10.1a-pSGEM plasmid was linearized with SfiI (ThermoFisher Scientific, Waltham, Massachusetts, USA) and transcribed using the T7 mMESSAGE-mMACHINE transcription kit (Ambion®, Carlsbad, California, USA).
Stage V-VI Xenopus laevis (African clawed frog) oocytes were isolated by partial ovariectomy. Mature female animals were purchased from Nasco (Fort Atkinson, Wisconsin, USA) and were housed in the Aquatic Facility (KU Leuven) in compliance with the regulations of the European Union (EU) concerning the welfare of laboratory animals as declared in Directive 2010/63/EU. The use of Xenopus laevis was approved by the Animal Ethics Committee of the KU Leuven (Project nr. P038/2017). Prior to harvesting the oocytes, the animals were anesthetized by a 15-min submersion in 0.1% tricaine methanesulfonate (pH 7.0). Isolated oocytes were defolliculated with 1.5 mg/mL collagenase.
Defolliculated oocytes were injected with 4 nL of cRNA at a concentration of 1 ng/nL using a micro-injector (Drummond Scientific®, Broomall, Pennsylvania, USA). The oocytes were incubated in a solution containing (in mM): NaCl, 96; KCl, 2; CaCl2, 1.8; MgCl2, 2 and HEPES, 5 (pH 7.4), supplemented with 50 mg/L gentamycin sulfate.
Two-electrode voltage-clamp recordings were performed at room temperature (18–22°C) using a Geneclamp 500 amplifier (Molecular Devices, USA) controlled by a pClamp data acquisition system (Axon Instruments®, Union City, California, USA). Whole cell currents from oocytes were recorded 1–4 days after injection. Bath solution composition was (in mM): NaCl, 96; KCl, 2; CaCl2, 1.8; MgCl2, 2 and HEPES, 5 (pH 7.5). Voltage and current electrodes were filled with a 3 M solution of KCl in H2O. Resistances of both electrodes were kept between 0.5 and 1.5 MΩ. The elicited KV10.1 currents were filtered at 1 kHz and sampled at 2 kHz using a four-pole low-pass Bessel filter. Leak subtraction was performed using a -P/4 protocol. KV10.1 currents were evoked by 2-s depolarizing pulses to 0 mV from a holding potential of -90 mV unless otherwise indicated.
All electrophysiological data are presented as means ± S.E.M of n ≥ 3 independent experiments unless otherwise indicated. All data was analyzed using pClamp Clampfit 10.4 (Molecular Devices®, Downingtown, Pennsylvania, USA) and OriginPro 8 (Originlab®, Northampton, Massachusetts, USA) or GraphPad Prism 5 software (GraphPad Software, Inc., San Diego, California, USA).

[1] = 40 μM, extracellular perfusion, average ± SEM, read-out: KV10.1 current inhibition

Row | melting point [°C] | inhibition at 40 µM (hKV10.1a; [1]) [%] | SMILES | further results
1 | 73 to 75 | – | CCOc1c(Cl)cc(C(=O)NCCc2cc(Br)c(CCCN(C)C)c(Br)c2)cc1Cl [Compound 24] | –
2 | 91 to 95 | – | COc1c(Cl)cc(C(=O)NCCc2cc(Br)c(CCCN(C)C)c(Br)c2)cc1Cl [Compound 23] | –
3 | 83 to 85 | – | COc1c(Br)cc(C(=O)NCCc2cc(Br)c(CCCN(C)C)c(Br)c2)cc1Br [Compound 26] | –
4 | – | 22 ± 3 | CN(C)CCCOc1c(Br)cc(CCNC(=O)c2ccc(Br)cc2)cc1Br [Compound 14] | –
5 | – | 58 ± 1 | CNCCCOc1c(Br)cc(CCNC(=O)c2ccc(OC)c(Cl)c2)cc1Br [Compound 44] | –
6 | 86 to 97 | 39 ± 7 | CNCCCOc1c(Br)cc(CCNC(=O)c2cc(Cl)c(OC)c(Cl)c2)cc1Br [Compound 45] | –
7 | – | 80 ± 2 | COc1ccc(C(=O)NCCc2cc(Br)c(OCCCN(C)C)c(Br)c2)cc1C [Compound 30] | –
8 | 83 to 89 | 65 ± 1 | COc1ccc(C(=O)NCCc2cc(Br)c(OCCCN(C)C)c(Br)c2)cc1F [Compound 27] | –
9 | 70 to 72 | 32 ± 4 | CN(C)CCCOc1c(Br)cc(CCNC(=O)c2ccccc2F)cc1Br [Compound 19] | –
10 | – | 4 ± 4 | CN(C)CCCOc1ccc(CCNC(=O)c2cc(Cl)cc(Cl)c2)cc1 [Compound 35] | KV10.1 inhibitory activity in words (structure-activity discussion) (hKV10.1a): abolished the activity
11 | – | 80 ± 4 | COc1ccc(C(=O)NCCc2cc(Br)c(OCCCN(C)C)c(Br)c2)cc1Br [Compound 25] | –
12 | 106 to 109 | – | COc1ccc(C(=O)NCCc2cc(Br)c(CCCN(C)C)c(Br)c2)cc1 [Compound 21] | –
13 | – | 27 ± 4 | CN(C)CCCOc1c(Br)cc(CCNC(=O)c2ccccc2Br)cc1Br [Compound 12] | –
14 | 93 to 96 | – | COc1c(F)cc(C(=O)NCCc2cc(Br)c(CCCN(C)C)c(Br)c2)cc1F [Compound 28] | –
15 | 107.5 to 109 | 0 | CC(C)CCCOc1c(Br)cc(CCNC(=O)c2cc(Cl)cc(Cl)c2)cc1Br [Compound 33] | KV10.1 inhibitory activity in words (structure-activity discussion) (hKV10.1a): total loss of the activity
16 | – | – | O=C(NCCc1ccc(O)cc1)c1cc(Cl)cc(Cl)c1 [Compound 34] | KV10.1 current inhibition (hKV10.1a; 40 μM, extracellular perfusion, average ± SEM): 0 ± 0%
17 | 123 to 124 | 0 | CC(C)CCCOc1c(Br)cc(CCNC(=O)c2cc(Br)cc(Br)c2)cc1Br [Compound 32] | KV10.1 inhibitory activity in words (structure-activity discussion) (hKV10.1a): total loss of the activity
18 | – | – | COCC(=O)O[C@]1(CCN(C)CCCc2nc3ccccc3[nH]2)CCc2cc(F)ccc2[C@@H]1C(C)C [mibefradil, reference compound] | inhibition at 10 µM (hKV10.1a; 10 μM, 2-s depolarizing pulses to 0 mV from -90 mV, read-out: KV10.1 current inhibition): 50 ± 5%
19 | 87 to 92 | 14 ± 5 | CNCCCOc1c(Br)cc(CCNC(=O)c2cc(F)c(OC)c(F)c2)cc1Br [Compound 46] | –
20 | 89 to 97 | 9 ± 5 | CNCCCOc1c(Br)cc(CCNC(=O)c2ccc(OC)cc2)cc1Br [Compound 43] | –
21 | – | 44 ± 4 | COc1ccc(C(=O)NCCc2cc(Br)c(OCCCN(C)C)c(Br)c2)cc1OC [Compound 31] | –
22 | 83 to 84.5 | – | CN(C)CCCc1c(Br)cc(CCNC(=O)c2cc(Cl)cc(Cl)c2)cc1Br [Compound 16] | –
23 | – | 79 ± 2 | COc1ccc(C(=O)NCCc2cc(Br)c(OCCCN(C)C)c(Br)c2)cc1I [Compound 29] | –
24 | – | 50 ± 3 | CN(C)CCCOc1c(Br)cc(CCNC(=O)c2cncc(Br)c2)cc1Br [Compound 15] | –
25 | – | 35 ± 2 | CN(C)CCCOc1c(Br)cc(CCNC(=O)c2cc(F)cc(F)c2)cc1Br [Compound 18] | –
